Residue numbers refer to the chain shown, from its start. Read-outs that look alike come from different tables or passages of the source.
Experiments:
[1] = molecular target: T1, β-glucocerebrosidase (N370S mutant) (Homo sapiens, UniProt P04062, N409S); experiment: β-Glucocerebrosidase activation (chaperone) assay in Gaucher N370S cells; type: cell-based; conditions: 3 days, versus untreated cells
T1 construct: mutant Gaucher lymphoblasts with the most common N370S mutation; endogenous in cells; host or cells: Gaucher (N370S) lymphoblasts
T1 sequence (P04062 40-536 N409S): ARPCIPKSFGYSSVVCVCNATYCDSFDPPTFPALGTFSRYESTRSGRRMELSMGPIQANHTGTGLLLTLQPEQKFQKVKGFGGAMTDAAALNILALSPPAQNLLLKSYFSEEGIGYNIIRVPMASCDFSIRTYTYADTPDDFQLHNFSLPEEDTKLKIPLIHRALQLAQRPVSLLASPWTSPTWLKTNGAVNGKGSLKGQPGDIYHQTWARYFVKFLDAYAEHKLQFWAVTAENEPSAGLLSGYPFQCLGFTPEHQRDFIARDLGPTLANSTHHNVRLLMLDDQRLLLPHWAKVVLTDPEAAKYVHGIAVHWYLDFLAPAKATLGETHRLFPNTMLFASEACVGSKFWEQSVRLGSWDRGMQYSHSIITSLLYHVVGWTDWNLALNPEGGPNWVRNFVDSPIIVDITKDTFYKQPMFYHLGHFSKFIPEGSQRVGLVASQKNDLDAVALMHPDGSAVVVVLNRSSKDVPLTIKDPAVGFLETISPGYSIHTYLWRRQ

[2] = molecular target: T2, ceramide glucosyltransferase (Homo sapiens, UniProt Q16739); experiment: Ceramide glucosyltransferase cellular assay (GM3 reduction in HL60 cells, NP-HPLC); type: cell-based; conditions: for IC50: 3 days, GM3 peak area
T2 construct: endogenous in cells; host or cells: HL60 cells
T2 sequence (Q16739 1-394): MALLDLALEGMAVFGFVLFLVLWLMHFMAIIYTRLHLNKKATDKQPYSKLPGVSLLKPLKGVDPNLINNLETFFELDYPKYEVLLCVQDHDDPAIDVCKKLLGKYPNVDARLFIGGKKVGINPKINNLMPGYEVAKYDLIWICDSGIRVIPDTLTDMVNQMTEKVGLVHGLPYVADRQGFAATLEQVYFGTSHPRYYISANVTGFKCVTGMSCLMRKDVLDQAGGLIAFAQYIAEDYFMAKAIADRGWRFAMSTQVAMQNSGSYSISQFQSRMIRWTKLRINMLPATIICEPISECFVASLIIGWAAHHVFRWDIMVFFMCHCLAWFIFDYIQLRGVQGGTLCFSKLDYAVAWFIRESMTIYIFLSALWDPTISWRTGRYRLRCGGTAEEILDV

[3] = molecular target: T3, human placental β-glucocerebrosidase (Homo sapiens, UniProt P04062); experiment: β-Glucocerebrosidase inhibition assay (4-methylumbelliferyl-β-glucoside, fluorogenic); type: biochemical
T3 construct: Human placental β-glucocerebrosidase was isolated and purified; from tissue; host or cells: human placenta
T3 sequence (P04062 40-536): T1 sequence (P04062 40-536 N409S) with S370N

ER alpha glucosidase = experiment: Free oligosaccharide analysis (measure of ER alpha glucosidase inhibition); type: cell-based; conditions: FIG. 13, compared with UV-4
Description: Free glucosyl oligosaccharides were measured according to Alonzi et al. Biochem. J. (2008) 409, 571-580.

[4] = tested on: glucosylceramide and lactosylceramide in Huh7.5 cells; experiment: Cellular glucosylceramide and lactosylceramide measurement in Huh7.5 hepatoma cells (lipidomics); type: cell-based; conditions: human hepatoma cells (Huh7.5), 10 μM, 4 days
Description: Glycosphingolipids (including GlcCer and LacCer) were measured according to Wolf, C. and Quinn, P. J. Progress in lipid research (2008) 47, 15-36. Briefly, chloroform-methanol extracts of cellular lipids were subjected to HPLC to isolate the glycosphingolipid species from other cellular lipids, then subjected to two-dimentional mass-spectromertry with internal standards in order to quantify particular glycosphingolipid species.
Huh7.5 cells were grown in DMEM supplemented with 100 U/ml penicillin, […] streptomycin, 2 mM L-glutamine, 1×MEM, and 10% FBS. All incubations were at 37° C./5% CO2. The effect of iminosugar treatment on cellular lipid profiles was determined in cells after incubation for 4 days in the presence or absence of iminosugars, at which point they were harvested using trypsin/EDTA, washed 3 times in cold PBS, counted using trypan blue staining, and final cell pellets were resuspended in methanol:acetone (vol 1:1) prior to lipid profiling, A small volume of each sample was used for total protein estimation using the Bradford protein assay (Bio-Rad).
The methodology has been described in detail previously (Wolf, C., Quinn, P. J., Lipidomics: Practical aspects and applications. Progress in Lipid Research 2008, 47, 15-36: Quinn, P. J., Rainteau, D., Wolf, C., Lipidomics of the red cell in diagnosis of human disorders. Methods Mol Biol 2009, 579, 127-159). […]

Row | Activation fold (@ 1 μM) ([1]; 1 μM) | IC50 [2] [µM] | IC50 [3] [µM] | Activation fold at 10 μM ([1]; 10 μM) [fold] | potency in cells relative to NB-DNJ ([2]; GM3 reduction, versus NB-DNJ (Zavesca)) | IC50 ([3]; human placental enzyme, 0.5 mM 4-MU-β-glucoside, pH 5.2) [µM] | Structure (SMILES) | ER glucosidase inhibitory activity (free oligosaccharide analysis) (ER alpha glucosidase) | inhibition of the cellular glucosylceramide / lactosylceramide pathway [4]
1 | 1.7 (@ 1 μM) fold | 0.049 ± 0.005 | 0.15 ± 0.03 | – | – | – | [N-]=[N+]=Nc1ccc(NCCCCCCN2C[C@H](O)[C@@H](O)[C@H](O)[C@H]2CO)c([N+](=O)[O-])c1 [UV5, N—(N′-{4′-azido-2′-nitrophenyl)-6-aminohexyl)-deoxynojirimycin] | – | –
2 | – | – | – | – | – | – | Cc1c(C)c2c(c(C)c1OCCCCCN1C[C@H](O)[C@@H](O)[C@H](O)[C@H]1CO)CC[C@@](C)(CCC[C@H](C)CCC[C@H](C)CCCC(C)C)O2 [Top-DNJ, tocopheryl-pentyl deoxynojirimycin] | virtually devoid of ER glucosidase inhibitory activity | near-complete inhibition
3 | – | 0.19 ± 0.021 | – | 2.1 | approximately 100 times | 1.85 ± 0.04 | COCCCCCCCCCN1C[C@H](O)[C@@H](O)[C@H](O)[C@H]1CO [UV4, N-(9-methoxynonyl)deoxynojirimycin] | – | –

Reference: patent US20160075651A1, “GLYCOLIPID INHIBITION USING IMINOSUGARS” (UNITHER VIROLOGY, LLC, priority 2013, published 2016)
